Assay results: PMC8622842, “Absolute Structure Determination and Kv1.5 Ion Channel Inhibition Activities of New Debromoaplysiatoxin Analogues” (Marine Drugs, 2021)
“Also recorded” adds a separate entry of the source. Read-outs that look alike come from different tables or passages of the source.

Experiments:
human Kv1.5 channels = biological target: T1, human Kv1.5 channels (Homo sapiens, UniProt P22460); test: Kv1.5 current inhibition, whole-cell electrophysiology in LTK cells stably expressing human Kv1.5; assay type: cell-based; details: for Voltage dependence of Kv1.5 current inhibition: tested potentials -50 mV to 50 mV
T1 construct: expressed in transfected cells
Description: For culturing mouse L cells lacking thymidine kinase (LTK) cells stably expressing human Kv1.5 channels (LTK/Kv1.5), 10% fetal bovine serum (FBS), 10,000 U/ml penicillin G and 10 mg/ml streptomycin were added into Dulbecco’s Modified Eagle Media (DMEM). LTK/Kv1.5 cells were cultured in a 37 °C humidified incubator set to 5% CO2. The amount of 100 μg/ml Genetic (G418) was added into the culture media to select transgenic cells. When the cells grew to 75–85% confluence, they were passaged for subsequent electrophysiological records (Supplementary Materials 1.3.1.1).
LTK cells cultured for at least 24 h could be used for currents recording. For Kv1.5 potassium current recording, the recording micropipettes were pulled with a P97 microelectrode puller (Sutter, CA, USA) with a resistance of about 3 MΩ when filling with internal solution containing the following: KCl 140 mM, MgCl2 1 mM, EGTA 5 mM, HEPES 10 mM and MgATP 1 mM (pH was adjusted to 7.25 by KOH). The bath solution contained the following: NaCl 137 mM, KCl 5.4 mM, CaCl2 1.8 mM, MgCl2 1 mM, Glucose 10 mM and HEPES 10 mM (pH was adjusted to 7.4 by NaOH). Kv1.5 currents were recorded at room temperature (22–24 °C) by PulseMaster (Version 2.65, Heka, Lambrecht, Germany) via an EPC-10 USB amplifier (Heka, Lambrecht, Germany). In order to reduce recording errors, cells with seal resistance above 1 GΩ and series resistance that was fully compensated above 80% were used. Leak compensation was used to compensate the leak current and to subtract the capacitive artifacts (Supplementary Materials 1.3.1.2).
1.3.1. Ion Channel Experiment
For culturing mouse L cells lacking thymidine kinase (Ltk−) cells stably expressing human Kv1.5 channels (Ltk−/Kv1.5), 10% fetal bovine serum (FBS), 10,000 U/ml penicillin G and 10 mg/ml streptomycin were added into Dulbecco's Modified Eagle Media (DMEM). Ltk−/Kv1.5 cells were cultured in a 37 °C humidified incubator set to 5% CO2. 100 μg/ml Genetic (G418) was added into the culture media to select transgenic cells. When the cells grew to 75% - 85% confluent, they were passaged for subsequent electrophysiological records.μ1.3.1.2.
1.3.1.2. Electrophysiology
Ltk− cells cultured for at least 24 h could be used for currents recording. For Kv1.5 potassium currents recording, the recording micropipettes were pulled with a P97 microelectrode puller (Sutter, CA, USA) with a resistance about 3 MΩ when filling with internal solution containing: KCl 140 mM, MgCl2 1 mM, EGTA 5 mM, HEPES 10 mM, MgATP 1 mM (pH was adjusted to 7.25 by KOH). The bath solution contained: NaCl 137 mM, KCl 5.4 mM, CaCl2 1.8 mM, MgCl2 1 mM, Glucose 10 mM, HEPES 10 mM (pH was adjusted to 7.4 by NaOH). Kv1.5 currents were recorded at room temperature (22–24°C) by PulseMaster (Version 2.65, Heka, Lambrecht, Germany) via an EPC-10 USB amplifier (Heka, Lambrecht, Germany).
To reduce recording errors, cells with seal resistance above 1 GΩ and series resistance was fully compensated above 80% were used. Leak compensation was used to compensate the leak current and to subtract the capacitive artifacts
Cells with amplitudes above 1 nA, series resistance less than 10 MΩ and leak compensation below 200 pA were chosen for data analysis. Kv1.5 currents were evoked by a 300 ms depolarizing pulse from -50 mV to 50 mv in 20 mV increments from a holding potential of -70 mV. The current amplitude at the end of 300-ms pulse was measured. The IC50 and Hill coefficient (n) was obtained by fitting concentration dependence data to the equation of I (%) = 1/{1+(IC50/[D]) n} in which I (%) is the percent inhibition of current (I (%) = [1-Idrug/Icontrol] ×100) at test potential and [D] represents various drug concentrations . The measured error at the end of relative short 300 ms pulse was limited and the fitted IC 50 was acceptable. For steady-state activation curves were fitted with the Boltzmann function: G/Gmax =1/{1+exp[−(V-V1/2)/k]}, where V is a membrane potential and the Nernst K + equilibrium potential EK was calculated as−80 mV. G was […]

Artemia salina = test: whole plant or invertebrate; assay type: in vivo; details: for Effect on brine shrimp A. salina: at 30 µM
Description: Brine shrimp A. salina is an important model organism for ecosystems, and because of its high sensitivity and easy availability, it can be used in laboratory settings to study toxic effects and to provide safe results. A. salina or brine shrimp cysts were cultivated in 3.2% of saline water. After aeration with normal saline, cysts were placed at temperature for 24 h and then cultured. For toxicity screening, hatched larvae were collected and introduced in saline water. Add 0.9% brine and 30 larvae with good activity to each well to produce a 96-well test culture plate. New compounds of 0.1 µM, 1 µM, 10 µM and 30 µM and DAT were added to the experimental culture plate, respectively. Dimethyl sulfoxide (Aladdin, Shanghai, China) and dichloromethane (Aladdin, Shanghai, China) were added as blank control and positive control. The survival rate of A. salina was calculated after 24 h treatment at 25 °C.
Commercially available Artemia salina (A. salina) or brine shrimp cysts were purchased and cultivated in 3.2% of saline water. Before cultivation, the saline was aerated, and then cysts were kept at room temperature for 24 h. For toxicity screening, hatched larvae were collected and introduced in saline water. Add saline water and equivalent larvae in per well of 96 wells to make test culture plate. Aplysiatoxins with 0.1 μM, 1 μM, 10 μM, 30 μM was added to test culture plate, while DMSO and dichloromethane were added as blank control test and positive control separately. After 24 h in 25 °C, the percent of survival of A. salina was calculated.
Table S1.3.2.1. Effect of compounds 1-4 to Artemia salina (A. salina) . A. salina were treated with indicated concentration (0.1 µM, 1 µM, 10 µM, 30 µM) of dichloromethane (DCM), debromoaplysiatoxin (DAT), oscillatoxin J, oscillatoxin K, oscillatoxin L, oscillatoxin M, Methylenechloride, Control for 24 h. The percentage of A. salina with all different kinds of […]
Compounds Percentage of Survival of Artemia salina after 24 h (μM) […]
Figure S1.3.2.1. Effect of debromoaplysiatoxin to Artemia salina (A. salina). […]
(also on this page, place not known: compound s , , , , J K L M . USA) -1.5 -1.0 -0.5 0.0 0 20 40 60 80 100 LogCon.
(1 picture or pasted object on this page, not shown here)

Kv1.2 channel = test system: Kv1.2 channel; set-up: method as in PMID 18313714; details: read-out: IC50 against Kv1.2 channel; cited from earlier work
phosphor PKCδ = test system: phosphor PKCδ; set-up: method as in PMID 35521179; details: HepG2, 10 µM; cited from earlier work

T1 sequence (P22460 whole entry): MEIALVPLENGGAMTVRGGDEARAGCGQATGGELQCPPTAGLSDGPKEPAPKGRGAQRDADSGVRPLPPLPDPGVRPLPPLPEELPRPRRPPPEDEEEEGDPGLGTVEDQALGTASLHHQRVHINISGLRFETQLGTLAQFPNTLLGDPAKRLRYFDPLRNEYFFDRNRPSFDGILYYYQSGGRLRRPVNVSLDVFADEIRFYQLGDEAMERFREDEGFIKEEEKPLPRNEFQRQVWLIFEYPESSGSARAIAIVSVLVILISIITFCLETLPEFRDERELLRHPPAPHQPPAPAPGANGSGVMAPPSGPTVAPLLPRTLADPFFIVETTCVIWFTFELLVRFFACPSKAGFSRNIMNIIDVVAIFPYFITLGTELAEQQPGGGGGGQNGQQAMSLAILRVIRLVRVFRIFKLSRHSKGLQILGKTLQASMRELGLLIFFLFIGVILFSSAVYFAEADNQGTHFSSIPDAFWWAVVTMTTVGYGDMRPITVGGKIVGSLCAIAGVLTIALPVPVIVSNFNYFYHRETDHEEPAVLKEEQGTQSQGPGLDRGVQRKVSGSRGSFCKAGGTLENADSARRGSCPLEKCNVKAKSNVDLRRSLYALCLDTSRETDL

CO[C@@H](CC[C@H](C)[C@H]1O[C@@]23C[C@H](OC(=O)C[C@H]([C@@H](C)O)OC(=O)/C=C(\O2)C(C)=CC3(C)C)[C@@H]1C)c1cccc(O)c1 [Compound 1, oscillatoxin J]
IC50 (human Kv1.5 channels; current at end of 300 ms pulse at 50 mV, 0.3-10 µM, mean ± SEM of 3 to 5 measurements, read-out: IC50 of Kv1.5 current inhibition): 2610 ± 910 nM
Voltage dependence of Kv1.5 current inhibition (human Kv1.5 channels): voltage dependently inhibited
Percentage of Survival of Artemia salina after 24 h (Artemia salina; 0.1 µM, 24 h): 96.62±0.37%
Percentage of Survival of Artemia salina after 24 h (Artemia salina; 1 µM, 24 h): 95.87±0.7%
Percentage of Survival of Artemia salina after 24 h (Artemia salina; 10 µM, 24 h): 95±1.52%
Percentage of Survival of Artemia salina after 24 h (Artemia salina; 30 µM, 24 h): 93.61±5.11%
Effect on brine shrimp A. salina (Artemia salina): no apparent effect

C=CC/C=C\C=C/[C@H]1O[C@H]2C[C@H]3O[C@H]4CC[C@H]5O[C@H]6C[C@@]7(C)O[C@@]8(C)[C@@H](O)C[C@H](CCCO)O[C@@H]8C[C@@H]7O[C@@H]6C[C@@H]5O[C@]4(C)C[C@]3(C)O[C@@H]2C=C[C@]1(C)O [Gambierol]
IC50 (Kv1.2 channel): 34.5 ± 1.5 nM

CO[C@@H](CC[C@H](C)[C@H]1O[C@@]23C[C@H](OC(=O)C[C@H]([C@@H](C)O)OC(=O)C[C@](O)(O2)[C@H](C)CC3(C)C)[C@@H]1C)c1cccc(O)c1 [Compound 5, debromoaplysiatoxin]
Percentage of Survival of Artemia salina after 24 h (Artemia salina; 0.1 µM, 24 h): 87.19±0.74%
Percentage of Survival of Artemia salina after 24 h (Artemia salina; 1 µM, 24 h): 2.96±2.1%
Percentage of Survival of Artemia salina after 24 h (Artemia salina; 10 µM, 24 h): 0%
Percentage of Survival of Artemia salina after 24 h (Artemia salina; 30 µM, 24 h): 0%
Concentration at which survival of Artemia salina began to be affected (Artemia salina; 24 h): 100 nM
IC50 (Artemia salina; Artemia salina, 0.05-0.5 µM, read-out: IC50 of brine shrimp toxicity (survival of A. salina)): 340 ± 36 nM
Expression of phosphor PKCδ (phosphor PKCδ): strongly upregulating

ClCCl [Methylenechloride, dichloromethane, reference compound]
Percentage of Survival of Artemia salina after 24 h (Artemia salina; 0.1 µM, 24 h): 0%
Percentage of Survival of Artemia salina after 24 h (Artemia salina; 1 µM, 24 h): 0%
Percentage of Survival of Artemia salina after 24 h (Artemia salina; 10 µM, 24 h): 0%
Percentage of Survival of Artemia salina after 24 h (Artemia salina; 30 µM, 24 h): 0%

CO[C@@H](CC[C@H](C)[C@H]1O[C@@]23C[C@H](OC(=O)C[C@H]([C@@H](C)O)OC(=O)C[C@](O)(O2)[C@@](C)(O)CC3(C)C)[C@@H]1C)c1cccc(O)c1 [Compound 3, oscillatoxin L]
IC50 (human Kv1.5 channels): > 10000 nM
Effect on Kv1.5 (human Kv1.5 channels; at 10 µM): minimum effects; also recorded: no apparent Kv1.5 inhibition activity
Percentage of Survival of Artemia salina after 24 h (Artemia salina; 0.1 µM, 24 h): 97.74±1.60%
Percentage of Survival of Artemia salina after 24 h (Artemia salina; 1 µM, 24 h): 98.89±1.57%
Percentage of Survival of Artemia salina after 24 h (Artemia salina; 10 µM, 24 h): 96.37±0.28%
Percentage of Survival of Artemia salina after 24 h (Artemia salina; 30 µM, 24 h): 73.38±9.64%
Effect on brine shrimp A. salina (Artemia salina): no apparent effect

CO[C@@H](CC[C@H](C)[C@H]1O[C@]23C[C@H](OC(=O)C[C@H]([C@@H](C)O)OC(=O)[C@H](O)C(=C(C)CC2(C)C)O3)[C@@H]1C)c1cccc(O)c1 [Compound 2, oscillatoxin K]
IC50 (human Kv1.5 channels): 3860 ± 1030 nM
Voltage dependence of Kv1.5 current inhibition (human Kv1.5 channels): voltage dependently inhibited
Percentage of Survival of Artemia salina after 24 h (Artemia salina; 0.1 µM, 24 h): 96.63±0.05%
Percentage of Survival of Artemia salina after 24 h (Artemia salina; 1 µM, 24 h): 96.05±0.07%
Percentage of Survival of Artemia salina after 24 h (Artemia salina; 10 µM, 24 h): 95.23±0.19%
Percentage of Survival of Artemia salina after 24 h (Artemia salina; 30 µM, 24 h): 89.97±7.12%
Effect on brine shrimp A. salina (Artemia salina): no apparent effect

COC(CCC(C)C1OC23CC(OC(=O)CC(C(C)O)OC(=O)CC(C)(O2)C(=O)CC3(C)C)C1C)c1cccc(O)c1 (stereo not shown) [Compound 4, oscillatoxin M]
IC50 (human Kv1.5 channels): 3790 ± 1010 nM
Voltage dependence of Kv1.5 current inhibition (human Kv1.5 channels): voltage dependently inhibited
Percentage of Survival of Artemia salina after 24 h (Artemia salina; 0.1 µM, 24 h): 95.13±1.09%
Percentage of Survival of Artemia salina after 24 h (Artemia salina; 1 µM, 24 h): 96.29±0.11%
Percentage of Survival of Artemia salina after 24 h (Artemia salina; 10 µM, 24 h): 96.15±0.12%
Percentage of Survival of Artemia salina after 24 h (Artemia salina; 30 µM, 24 h): 82.27±6.13%
Effect on brine shrimp A. salina (Artemia salina): no apparent effect
